Data as given in PubChem BioAssay (NCI).
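Following 48 hours of exposure in 96-well plates, responses at five concentrations were used to interpolate endpoints linearly. Abbreviation: GI50, concentration required for 50% inhibition of growth. At the TGI there is no net growth.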

How the values were obtained:
Experiment in all cases: NCI tumour cell line growth inhibition, 48 h
[1] = system: 786-0 renal
[2] = system: A498 renal
[3] = system: A549 NSCLC
[4] = system: ACHN renal
[5] = system: BT-549 breast
[6] = system: CAKI-1 renal
[7] = system: CCRF-CEM leukemia
[8] = system: COLO 205 colon
[9] = system: DU-145 prostate
[10] = system: EKVX NSCLC
[11] = system: HCC-2998 colon
[12] = system: HCT-116 colon
[13] = system: HCT-15 colon
[14] = system: HL-60(TB) leukemia
[15] = system: HOP-62 NSCLC
[16] = system: HOP-92 NSCLC
[17] = system: HS 578T breast
[18] = system: HT29 colon
[19] = system: IGROV1 ovarian
[20] = system: K-562 leukemia
[21] = system: KM12 colon
[22] = system: LOX IMVI melanoma
[23] = system: M14 melanoma
[24] = system: MALME-3M melanoma
[25] = system: MCF7 breast
[26] = system: MDA-MB-231 breast
[27] = system: MDA-MB-435
[28] = system: MDA-MB-468 breast
[29] = system: MOLT-4 leukemia
[30] = system: NCI-H226 lung
[31] = system: NCI-H23 lung
[32] = system: NCI-H460 lung
[33] = system: NCI-H522 lung
[34] = system: NCI/ADR-RES ovarian
[35] = system: OVCAR-3 ovarian
[36] = system: OVCAR-4 ovarian
[37] = system: OVCAR-5 ovarian
[38] = system: OVCAR-8 ovarian
[39] = system: PC-3 prostate
[40] = system: RPMI-8226 leukemia
[41] = system: RXF 393 renal
[42] = system: SF-268 CNS
[43] = system: SF-295 CNS
[44] = system: SF-539 CNS
[45] = system: SK-MEL-2 melanoma
[46] = system: SK-MEL-28 melanoma
[47] = system: SK-MEL-5 melanoma
[48] = system: SK-OV-3 ovarian
[49] = system: SN12C renal
[50] = system: SNB-19 CNS
[51] = system: SNB-75 CNS
[52] = system: SR leukemia
[53] = system: SW-620 colon
[54] = system: T-47D breast
[55] = system: TK-10 renal
[56] = system: U251 CNS
[57] = system: UACC-257 melanoma
[58] = system: UACC-62 melanoma
[59] = system: UO-31 renal

`O=C(N/N=C/c1c[nH]c2ccccc12)Nc1ccccc1Cl` showed a GI50 [1] of 0.493 µM, a TGI [1] of 3.74 µM and a GI50 [2] of 5.23 µM. For the same compound, the TGI [2] was 18.5 µM, the GI50 [3] was 0.577 µM and the TGI [3] was 13 µM. The GI50 [4] was 0.665 µM, the TGI [4] was 14.6 µM and the GI50 [5] was 0.311 µM. For the same compound, the TGI [5] was 6.31 µM, the GI50 [6] was 0.257 µM and the TGI [6] was 13.8 µM. For the same compound, the GI50 [7] was 0.178 µM, the TGI [7] was 10.2 µM and the GI50 [8] was 0.292 µM. It also gave a TGI [8] of 1.07 µM, a GI50 [9] of 0.432 µM and a TGI [9] of 11.4 µM. It also gave a GI50 [10] of 0.5 µM, a TGI [10] of 13 µM and a GI50 [11] of 0.608 µM. The TGI [11] was 3.49 µM, the GI50 [12] was 0.0709 µM and the TGI [12] was 3.82 µM. For the same compound, the GI50 [13] was 0.0658 µM, the TGI [13] was 12 µM and the GI50 [14] was 0.102 µM. For the same compound, the TGI [14] was 2.63 µM, the GI50 [15] was 0.427 µM and the TGI [15] was 15.6 µM. For the same compound, the GI50 [16] was 0.869 µM, the TGI [16] was 8.33 µM and the GI50 [17] was 0.285 µM. It also gave a TGI [17] of 15 µM, a GI50 [18] of 0.119 µM and a TGI [18] of 0.986 µM. The GI50 [19] was 0.358 µM, the TGI [19] was 12.2 µM and the GI50 [20] was 0.0391 µM. It also gave a TGI [20] greater than 33.8 µM, a GI50 [21] of 0.172 µM and a TGI [21] of 5.19 µM. For the same compound, the GI50 [22] was 0.274 µM, the TGI [22] was 10.6 µM and the GI50 [23] was 0.111 µM. It also gave a TGI [23] of 11.9 µM, a GI50 [24] of 0.239 µM and a TGI [24] of 16 µM. For the same compound, the GI50 [25] was 0.23 µM, the TGI [25] was 14.3 µM and the GI50 [26] was 0.508 µM. It also gave a TGI [26] of 4.93 µM, a GI50 [27] of 0.027 µM and a TGI [27] of 0.0891 µM. It also gave a GI50 [28] of 0.217 µM, a TGI [28] of 0.584 µM and a GI50 [29] of 0.264 µM. It also gave a TGI [29] of 12.6 µM, a GI50 [30] of 1.69 µM and a TGI [30] of 19.6 µM. It also gave a GI50 [31] of 0.424 µM, a TGI [31] of 6.89 µM and a GI50 [32] of 0.336 µM. The TGI [32] was 6.2 µM, the GI50 [33] was 0.0422 µM and the TGI [33] was 0.328 µM. For the same compound, the GI50 [34] was 0.0574 µM, the TGI [34] was 0.613 µM and the GI50 [35] was 0.096 µM. It also gave a TGI [35] of 2.32 µM, a GI50 [36] of 2.78 µM and a TGI [36] of 29.7 µM. For the same compound, the GI50 [37] was 0.67 µM, the TGI [37] was 13.1 µM and the GI50 [38] was 0.401 µM. For the same compound, the TGI [38] was 5.76 µM, the GI50 [39] was 0.428 µM and the TGI [39] was 15.4 µM. It also gave a GI50 [40] of 0.345 µM, a TGI [40] of 4.76 µM and a GI50 [41] of 0.292 µM. It also gave a TGI [41] of 2.1 µM, a GI50 [42] of 0.844 µM and a TGI [42] of 15 µM. It also gave a GI50 [43] of 0.255 µM, a TGI [43] of 2.52 µM and a GI50 [44] of 0.205 µM. The TGI [44] was 0.684 µM, the GI50 [45] was 0.222 µM and the TGI [45] was 11.3 µM. It also gave a GI50 [46] of 2.52 µM, a TGI [46] of 19.1 µM and a GI50 [47] of 0.254 µM. The TGI [47] was 1.37 µM, the GI50 [48] was 0.526 µM and the TGI [48] was 20.2 µM. For the same compound, the GI50 [49] was 0.433 µM, the TGI [49] was 6.51 µM and the GI50 [50] was 0.59 µM. For the same compound, the TGI [50] was 16.8 µM, the GI50 [51] was 0.232 µM and the TGI [51] was 2.64 µM. The GI50 [52] was 0.0411 µM, the TGI [52] was 12.9 µM and the GI50 [53] was 0.117 µM. For the same compound, the TGI [53] was 16 µM, the GI50 [54] was 0.386 µM and the TGI [54] was 26.6 µM. The GI50 [55] was 2.41 µM, the TGI [55] was 20.6 µM and the GI50 [56] was 0.288 µM. The TGI [56] was 11.1 µM, the GI50 [57] was 0.598 µM and the TGI [57] was 22.5 µM. The GI50 [58] was 0.148 µM, the TGI [58] was 4.7 µM and the GI50 [59] was 0.471 µM. The TGI [59] was 14.9 µM.
